# Measurements: patent publication US9637520B2, “Template-fixed peptidomimetics with CXCR7 modulating activity” (POLYPHOR AG, priority 2010, dated 2017)
# Starred links: 1 amine or outer side, 2 acyl side, 3 side chain; linkers in the order of their positions; H or OH if unused. Non-standard residues stand in square brackets, D forms with d. Residues, ends and D or L forms follow the SMILES beside them. X3 = O=C(N[C@H]1C[C@@H](C(=O)[*:2])N([*:1])C1)c1ccccc1; 1Nal = N[C@@H](Cc1cccc2ccccc12)C(=O)O; Pro(3S-OH) = O=C(O)[C@H]1NCC[C@@H]1O; dDab = NCC[C@@H](N)C(=O)O; hSer = N[C@@H](CCO)C(=O)O; Dab = NCC[C@H](N)C(=O)O
# Target: T1, CXCR7 (Homo sapiens, UniProt P25106)
# T1 construct: host or cells: CHO (PathHunter CHO-CXCR7 β-arrestin cells)
# T1 sequence (P25106 whole entry): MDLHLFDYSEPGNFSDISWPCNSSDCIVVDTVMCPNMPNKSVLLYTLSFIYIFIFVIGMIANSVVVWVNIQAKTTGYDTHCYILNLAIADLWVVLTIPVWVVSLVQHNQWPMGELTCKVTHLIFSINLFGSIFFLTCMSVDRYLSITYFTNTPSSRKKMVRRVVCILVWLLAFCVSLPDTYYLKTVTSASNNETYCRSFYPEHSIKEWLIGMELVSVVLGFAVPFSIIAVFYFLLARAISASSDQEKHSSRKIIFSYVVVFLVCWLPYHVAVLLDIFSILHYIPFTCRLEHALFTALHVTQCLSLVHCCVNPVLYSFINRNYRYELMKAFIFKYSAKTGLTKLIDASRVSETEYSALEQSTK
# Test: CXCR7 β-arrestin recruitment assay (PathHunter CHO-CXCR7, DiscoverX), agonistic assay
# Format: cell-based
# Conditions: not given
# Procedure: Lyophilized peptides were weighed on a Microbalance (Mettler MX5) and dissolved in DMSO to a final concentration of 10 mM unless otherwise stated. Stock solutions were kept at +4° C., and protected from light.
# 2.2 CXCR7 β-Arrestin Recruitment Assay
# The PathHunter CHO-CXCR7 (DiscoverX) assay was performed according to the manufacturer's protocol. In brief, CHO CXCR7 β-arrestin cells were seeded at a density of 5000 cells per well in 40 μl of F12 medium in black 96-half volume well culture plates and incubated overnight at 37° C. in a humidified atmosphere with 5% CO2. The next day, serial dilutions of PEM compounds have been prepared in DMSO and subsequently diluted in HBSS buffer containing 0.1% BSA.
# For agonistic assay, 10 μl of compound solution or a solution of stromal cell-derived factor-1 (SDF-1) as positive control was added to the cells with a final DMSO concentration of 1% (v/v). The plate was incubated for 90 min at 37° C. in 5% CO2 incubator with gentle shaking (300 rpm) before addition of 40 μl of detection reagent per well. Reaction was developed for 90 min at room temperature in the dark with shaking, and chemiluminescence was measured with a Topcount (Perkin Elmer) luminescence counter.
row,Compound,EC50 [nM]
1,"O=C(N[C@H]1C[C@H]2C(=O)N[C@@H](Cc3c[nH]cn3)C(=O)N[C@H](Cc3c[nH]c4ccccc34)C(=O)N[C@@H](Cc3c[nH]cn3)C(=O)N[C@@H](Cc3c[nH]c4ccccc34)C(=O)N3CCC[C@@H]3C(=O)N2C1)c1ccccc1 [Ex. 51, cyclo(-His-^DTrp-His-Trp-^DPro-Pro((4S)NHBz)-)] (cyclo(HW[dP][X3]H[dW]))",413 ± 225

# Same assay, conditions: agonistic assay; CHO CXCR7 β-arrestin cells; 90 min at 37° C.; chemiluminescence; read-out: β-Arrestin EC50
row,Compound,EC50 [nM]
1,"CC[C@H](C)[C@@H]1NC(=O)[C@H]([C@@H](C)O)NC(=O)[C@H]2CCCN2C(=O)[C@H]([C@@H](C)CC)NC(=O)[C@H](CCCNC(=N)N)NC(=O)[C@@H](CCCNC(=N)N)NC1=O [Ex. 1, cyclo(-Ile-^DArg-Arg-Ile-^DPro-Thr-)] (cyclo(I[dP]TI[dR]R))",79.7 ± 99.7
2,"CC[C@H](C)[C@@H]1NC(=O)[C@H]([C@@H](C)O)NC(=O)[C@H]2CCCN2C(=O)[C@H](Cc2ccc(O)cc2)NC(=O)[C@H](CCCNC(=N)N)NC(=O)[C@@H](CCCNC(=N)N)NC1=O [Ex. 2, cyclo(-Ile-^DArg-Arg-Tyr-^DPro-Thr-)] (cyclo(I[dR]RY[dP]T))",83.7 ± 77.4
3,"CC[C@H](C)[C@@H]1NC(=O)[C@H]([C@@H](C)O)NC(=O)[C@H]2CCCN2C(=O)[C@H](Cc2c[nH]c3ccccc23)NC(=O)[C@H](CCN)NC(=O)[C@@H](CCCNC(=N)N)NC1=O [Ex. 4, cyclo(-Ile-^DArg-Dab-Trp-^DPro-Thr-)] (cyclo([Dab]W[dP]TI[dR]))",87 ± 84.1
4,"CC[C@H](C)[C@@H]1NC(=O)[C@H]([C@@H](C)O)NC(=O)[C@H]2CCCN2C(=O)[C@H](Cc2c[nH]c3ccccc23)NC(=O)[C@H](CCCNC(=N)N)NC(=O)[C@@H](CCN)NC1=O [Ex. 5, cyclo(-Ile-^DDab-Arg-Trp-^DPro-Thr-)] (cyclo(I[dDab]RW[dP]T))",48.4 ± 67.5
5,"CC[C@H](C)[C@@H]1NC(=O)[C@H]([C@@H](C)O)NC(=O)[C@H]2CCCN2C(=O)[C@H](Cc2ccccc2)NC(=O)[C@H](CCCNC(=N)N)NC(=O)[C@@H](CCCNC(=N)N)NC1=O [Ex. 6, cyclo(-Ile-^DArg-Arg-Phe-^DPro-Thr-)] (cyclo(F[dP]TI[dR]R))",46.4 ± 57.9
6,"CC[C@H](C)[C@@H]1NC(=O)[C@H]([C@@H](C)O)NC(=O)[C@H]2CCCN2C(=O)[C@H](Cc2c[nH]c3ccccc23)NC(=O)[C@H](CCCNC(=N)N)NC(=O)[C@@H]([C@H](C)O)NC1=O [Ex. 7, cyclo(-Ile-^DThr-Arg-Trp-^DPro-Thr-)] (cyclo(I[dT]RW[dP]T))",53.2 ± 35.8
7,"CC[C@H](C)[C@@H]1NC(=O)[C@H](CCO)NC(=O)[C@H]2CCCN2C(=O)[C@H](Cc2c[nH]c3ccccc23)NC(=O)[C@H](CCCNC(=N)N)NC(=O)[C@@H](CCCNC(=N)N)NC1=O [Ex. 8, cyclo(-Ile-^DArg-Arg-Trp-^DPro-hSer-)] (cyclo(I[dR]RW[dP][hSer]))",347 ± 10.3
8,"C[C@@H](O)[C@@H]1NC(=O)[C@H]2CCCN2C(=O)[C@H](Cc2c[nH]c3ccccc23)NC(=O)[C@H](CCCNC(=N)N)NC(=O)[C@@H](CCCNC(=N)N)NC(=O)[C@H](Cc2cccc3ccccc23)NC1=O [Ex. 10, cyclo(-1Nal-^DArg-Arg-Trp-^DPro-Thr-)] (cyclo([1Nal][dR]RW[dP]T))",28.5 ± 12.6
9,"CC[C@H](C)[C@@H]1NC(=O)[C@H]([C@@H](C)O)NC(=O)[C@H]2CCCN2C(=O)[C@H](CCCNC(=N)N)NC(=O)[C@H](Cc2c[nH]c3ccccc23)NC(=O)[C@@H](CCCNC(=N)N)NC1=O [Ex. 17, cyclo(-Ile-^DArg-Trp-Arg-^DPro-Thr-)] (cyclo(I[dR]WR[dP]T))",62.5 ± 1.8
10,"C[C@@H](O)[C@@H]1NC(=O)[C@H]2CCCN2C(=O)[C@H](Cc2c[nH]c3ccccc23)NC(=O)[C@H](CCCNC(=N)N)NC(=O)[C@@H](CCCNC(=N)N)NC(=O)[C@H](Cc2c[nH]c3ccccc23)NC1=O [Ex. 20, cyclo(-Trp-^DArg-Arg-Trp-^DPro-Thr-)] (cyclo(RW[dP]TW[dR]))",538 ± 105
11,"CC[C@H](C)[C@@H]1NC(=O)[C@@H]2[C@@H](O)CCN2C(=O)[C@H]2CCCN2C(=O)[C@H](Cc2c[nH]c3ccccc23)NC(=O)[C@H](CCCNC(=N)N)NC(=O)[C@@H](CCCNC(=N)N)NC1=O [Ex. 21, cyclo(-Ile-^DArg-Arg-Trp-^DPro-Pro((3S)OH)—)] (cyclo(I[dR]RW[dP][Pro(3S-OH)]))",123 ± 85.2
12,"CC[C@H](C)[C@@H]1NC(=O)[C@H](CO)NC(=O)[C@H]2CCCN2C(=O)[C@H](Cc2c[nH]c3ccccc23)NC(=O)[C@H](CCCNC(=N)N)NC(=O)[C@@H](CCCNC(=N)N)NC1=O [Ex. 22, cyclo(-Ile-^DArg-Arg-Trp-^DPro-Ser-)] (cyclo(I[dR]RW[dP]S))",12.8 ± 3.5
